Reference: patent publication US8729055B2, “Ursolic acid derivative and pharmaceutical composition thereof” (Kaohsiung Medical University, priority 2010, dated 2014)

Assays:
[1] = test system: NTUB1 cells (human bladder cancer cell line); assay: MTT cytotoxicity assay against NTUB1 cells; assay type: cell-based; conditions: for IC50 / % of viability at the highest concentration: NTUB1 cells; for IC50: MTT, mean±SD (n=5); for cytotoxic activity against NTUB1 cells, in words: comparison with the parent compound, from Table 1; for % of viability at the highest concentration: given when 50% inhibition not reached at the highest concentration (30 μM)
Protocol: In the present embodiment, cell culture and MTT assay is used for cell viability/proliferation. NTUB1, a human bladder cancer cell line, is established from a high-grade bladder cancer. […] The cells are cultured at 37° C. in a humidified atmosphere containing 5% CO2. […] Briefly, the cells are plated at a density of 1800 cells/well in 96-well plates and incubated at 37° C. overnight before drug exposure. Cells are then cultured in the presence of graded concentrations of the test compound with or without various concentrations of cisplatin (Pharmacia & Upjohn, Milan, Italy) at 37° C. for 72 h. At the end of the culture period, 50 μL of MTT (2 mg/mL in PBS) is added to each well and allowed to react for 3 h. Following centrifugation of plates at 1000 g for 10 min, media are removed and 150 μL DMSO are added to each well. The proportions of surviving cells are determined by absorbance spectrometry at 540 nm using […]) microplate reader. The cell viability is expressed as a percentage to the viable cells of control culture condition. The IC50s of each group are calculated by the […] analysis and presented as mean±standard deviation (SD). […] In Table 1, data are presented as mean±SD (n=5). […] The control cells are treated with culture medium containing 0.1% DMSO. Cisplatin is used as a positive control.

PC3 cells = assay: MTT cytotoxicity assay against PC3 cells; assay type: cell-based, human; conditions: 72 h
Excerpt: (§1) The data shown in FIGS. 4(A) to 4(C) represent mean±SD (n=3) for one experiment performed in triplicate. The symbols, “*” represents p<0.05, “**” represents p<0.01, and “***” represents p<0.001, compared to the control value, respectively.

A549 cells = assay: MTT cytotoxicity assay against A549 cells; assay type: cell-based, human; conditions: 72 h
Excerpt: as §1

NTUB1 cells [2] = assay: Intracellular ROS by DCFH-DA flow cytometry in NTUB1 cells; assay type: cell-based, human
Protocol: As to the quantitative analysis of intracellular ROS, the flow cytometry analysis is also adopted. Cells are plated and treated as above-mentioned conditions. Ten-micromolar dichlorofluorescein diacetate (DCFH-DA; Molecular Probes, Eugene, Oreg.) is added to the treated cells 30 min prior harvest. The cells are collected by trypsinization and washed with PBS. The green fluorescence of intracellular DCF (2′,7′-dichlorofluorescein) is then analyzed immediately by FACScan flow cytometer with a 525-nm band pass filter (Becton Dickinson).

accumulation of NO2− = assay: Experiment A: accumulation of NO2− (Griess reaction); assay type: cell-based, rat; conditions: for percentage of inhibition at 30 μM, A NO2−: given when 50% inhibition not reached; for IC50: inhibition of accumulation of NO2−
Protocol: (§2) This example illustrates the anti-inflammatory activities of compounds 5, 7-11, 20 and 21. The anti-inflammatory activities of compounds 5, 7-11, 20 and 21 are studied in vitro for their inhibitory effects on chemical mediators released from neutrophils, mast cells or macrophages of rat.
(§3) Please refer to Table 2, which illustrates the inhibitory effects of compounds 5, 7-11, 20 and 21 on the accumulation of NO2^− (Experiment A), superoxide anion formation (n mol/10^6 cells/30 min) from rat neutrophils stimulated with PMA (Experiment B), and the release of β-glucuronidase from rat peritoneal mast cells stimulated with compound 48/80 (Experiment C). In Table 2, when 50% inhibition could not be reached at the highest concentration, the percentage of inhibition at 30 μM is given.
In the Experiment A, Nitric oxide (NO) in the cell medium is determined by the Griess reaction, and N-(3-aminomethyl)benzylamide (1400 W) is used as a positive control.

NTUB1 cells [3] = assay: Cell cycle progression by FACS in propidium iodide-stained NTUB1 cells; assay type: cell-based, human
Protocol: These cells are harvested by trypsinization, washed with 1×PBS, and fixed in ice-cold MeOH at −20° C. After overnight incubation, the cells are washed with PBS and incubated with 50 μg/mL propidium iodide (Sigma, Co) and 50 μg/mL RNase A (Sigma, Co) in PBS at room temperature for 30 min. The fractions of cells in each phase of cell cycle are analyzed using FACScan flow cytometer and Cell Quest software (Becton Dickinson).

[4] = test system: rat neutrophils stimulated with PMA; assay: Experiment B: superoxide anion formation from rat neutrophils stimulated with PMA; assay type: cell-based; conditions: PMA (3 nM)
Protocol: This example illustrates the anti-inflammatory activities of compounds 5, 7-11, 20 and 21. The anti-inflammatory activities of compounds 5, 7-11, 20 and 21 are studied in vitro for their inhibitory effects on chemical mediators released from neutrophils, mast cells or macrophages of rat. […] In Table 2, when 50% inhibition could not be reached at the highest concentration, the percentage of inhibition at 30 μM is given. In the Experiment B, superoxide anion generation is measured in terms of superoxide dismutase-inhibitable cytochrome c reduction. Neutrophils isolated from the peripheral blood of the rats are washed and suspended in Hanks' balanced salt solution (HBSS). Neutrophil suspension is preincubated with DMSO or drugs, and then superoxide dismutase (SOD) or HBSS is added into the blank and test wells, respectively. The final volume of DMSO in the reaction mixture is ≦0.5%. After addition of cytochrome c, reaction is initiated by challenge with PMA (3 nM). Thirty minutes later, the reaction is terminated by centrifugation and the absorbance changes of supernatant are monitored at 550 nm in a microplate reader. The superoxide anion generation is measured in terms of superoxide dismutase-inhibitable cytochrome c reduction. Trifluoperazine is used as a positive control for the Experiment B.

[5] = test system: rat peritoneal mast cells stimulated with compound 48/80; assay: Experiment C: release of β-glucuronidase from rat peritoneal mast cells stimulated with compound 48/80; assay type: cell-based; conditions: Mast cell; rat peritoneal mast cells, compound 48/80
Protocol: as §2, §3
In the Experiment C, Heparinized Tyrode's solution is injected into the peritoneal cavity of exsanguinated rat (Sprague-Dawley, 250-300 g). After abdominal massage, cells in the peritoneal fluid are harvested and then separated in 38% bovine serum albumin (BSA) in glucose-free Tyrode's solution. […] Fifteen min after the addition of compound 48/80 ([…]), β-glucuronidase (phenolphthalein-β-glucuronide as substrate, 550 nm) in the supernatant is determined. The total content of β-glucuronidase is measured after treatment of the cell suspension with Triton X-100, and the percentage release is calculated. […]

[6] = 50 μM, compared across the three cell lines

Compound `C[C@H]1[C@H](C)CC[C@]2(C(=O)O)CC[C@]3(C)C(=CC[C@@H]4[C@@]5(C)CC[C@H](O)C(C)(C)[C@@H]5CC[C@]43C)[C@H]12` [Compound 1, ursolic acid] has an IC50 ([1]; Homo sapiens, 72 h) of 29.4 ± 1.9 µM.

In the case of `COC(=O)[C@]12CC[C@@H](C)[C@H](C)[C@H]1C1=CC[C@@H]3[C@@]4(C)CC[C@H](O)C(C)(C)[C@@H]4CC[C@@]3(C)[C@]1(C)CC2` [Compound 2], the IC50 ([1]; 72 h) is reported as 37.1 µM and the “cytotoxic activity against NTUB1 cells, in words” value (shortened to “cytotoxic activity”) [1] is reported as “decreases the cytotoxic activity”.

For `CCOC(=O)C12CCC(C)C(C)C1C1=CCC3C4(C)CCC(O)C(C)(C)C4CCC3(C)C1(C)CC2` (stereo not drawn) [Compound 3], the IC50 ([1]; 72 h) was 13.5 µM.

With `CC(C)OC(=O)[C@]12CC[C@@H](C)[C@H](C)[C@H]1C1=CC[C@@H]3[C@@]4(C)CC[C@H](O)C(C)(C)[C@@H]4CC[C@@]3(C)[C@]1(C)CC2` [Compound 5, Isopropyl 3β-hydroxyurs-12-en-28-oate] the “cytotoxic effect at 50 μM, PC3 cells” value (PC3 cells; [6]) was “same cytotoxic effect”, the “cytotoxic effect against PC3 cells compared with NTUB1 cells” value (PC3 cells; MTT, FIG. 4) was “do not exhibit stronger cytotoxic effects” and the “cytotoxic effect at 50 μM, A549 cells” value (A549 cells; [6]) was “same cytotoxic effect”. The “cytotoxic effect against A549 cells compared with NTUB1 cells” value (A549 cells; MTT, FIG. 4) was “do not exhibit stronger cytotoxic effects”, the “intracellular ROS” value (NTUB1 cells [2]; 40 μM, 24 h, effect inhibited by NAC) was “significant increase in intracellular ROS” and the “intracellular ROS” value (NTUB1 cells [2]; 20 and 40 μM, 48 h, effect not inhibited by NAC) was “significant increase in intracellular ROS”. The “percentage of inhibition at 30 μM, A NO2−” value (from here on “percentage of inhibition”) (accumulation of NO2−) was 45.3 ± 7.0%, the “effect on cell cycle progression” value (NTUB1 cells [3]; 20-40 μM, 48 h) was “arrests G2/M phase before accumulation of cells in sub-G1 phase” and the “effect on cell cycle progression” value (NTUB1 cells [3]; 20 and 40 μM (20-40 μM), 24 h) was “induces G1 phase arrest in a dose-dependent manner”. The apoptotic cell death (NTUB1 cells [3]; 20 and 40 μM, 24 h) was “increase in the apoptotic cell death”, the “cytotoxic effect at 50 μM, NTUB1 cells” value ([1]; 50 μM, 72 h, compared across the three cell lines) was “same cytotoxic effect” and the IC50 ([1]; 72 h) was 7.97 ± 0.48 µM.

With `CCCCCOC(=O)[C@]12CC[C@@H](C)[C@H](C)[C@H]1C1=CC[C@@H]3[C@@]4(C)CC[C@H](O)C(C)(C)[C@@H]4CC[C@@]3(C)[C@]1(C)CC2` [Compound 7, Pentyl 3β-hydroxyurs-12-en-28-oate] the IC50 [4] was 10.8 ± 2.2 µM, the “percentage of inhibition” value (accumulation of NO2−) was 29.8 ± 3.3% and the IC50 ([1]; 72 h) was 27.8 ± 1.63 µM.

In the case of `CCCCCCOC(=O)[C@]12CC[C@@H](C)[C@H](C)[C@H]1C1=CC[C@@H]3[C@@]4(C)CC[C@H](O)C(C)(C)[C@@H]4CC[C@@]3(C)[C@]1(C)CC2` [Compound 8, Hexyl 3β-hydroxyurs-12-en-28-oate], the IC50 [4] is reported as 11.5 ± 0.9 µM and the IC50 ([1]; 72 h) is reported as 26.2 ± 2.51 µM.

`CC(C)=CCOC(=O)[C@]12CC[C@@H](C)[C@H](C)[C@H]1C1=CC[C@@H]3[C@@]4(C)CC[C@H](O)C(C)(C)[C@@H]4CC[C@@]3(C)[C@]1(C)CC2` [Compound 9, 3′-Methyl-2′-butenyl 3β-hydroxyurs-12-en-28-oate] was tested, and the IC50 [4] was 6.1 ± 1.9 µM, the “percentage of inhibition” value (accumulation of NO2−) was 45.2 ± 5.9% and the IC50 ([1]; 72 h) was 10.9 ± 2.01 µM.

For `C[C@H]1[C@H](C)CC[C@]2(C(=O)OCCO)CC[C@]3(C)C(=CC[C@@H]4[C@@]5(C)CC[C@H](O)C(C)(C)[C@@H]5CC[C@]43C)[C@H]12` [Compound 10, 2′-Hydroxyethyl 3β-hydroxyurs-12-en-28-oate], the “percentage of inhibition” value (accumulation of NO2−) was 33.1 ± 7.2%, the IC50 ([1]; 72 h) was 19.5 µM and the “cytotoxic activity” value [1] was “attenuate the cytotoxicity”.

With `C[C@H]1[C@H](C)CC[C@]2(C(=O)OCC(=O)OC(C)(C)C)CC[C@]3(C)C(=CC[C@@H]4[C@@]5(C)CC[C@H](O)C(C)(C)[C@@H]5CC[C@]43C)[C@H]12` [Compound 11, Tert-Butoxycarbonylmethyl 3β-hydroxyurs-12-en-28-oate] the IC50 (accumulation of NO2−) was 21.7 ± 6.5 µM, the IC50 ([1]; 72 h) was over 30 µM and the “% of viability at the highest concentration” value (shortened to “% of viability”) [1] was 64.85%.

`CC1CCC2(C(=O)O)CCC3(C)C(=CCC4C5(C)CCC(=O)C(C)(C)C5CCC43C)C2C1C` (stereo not drawn) [Compound 18] was tested, and the IC50 ([1]; 72 h) was 21.4 ± 15.5 µM and the “cytotoxic activity” value [1] was “increases cytotoxicities”.

With `COC(=O)C12CCC(C)C(C)C1C1=CCC3C4(C)CCC(=O)C(C)(C)C4CCC3(C)C1(C)CC2` (stereo not drawn) [Compound 19] the IC50 ([1]; 72 h) was 29.6 ± 4.65 µM.

With `C[C@H]1[C@H](C)CC[C@]2(C(=O)O)CC[C@]3(C)C(=CC[C@@H]4[C@@]5(C)CCC(=O)OC(C)(C)[C@@H]5CC[C@]43C)[C@H]12` [Compound 20, 4-Hydroxy-3,4-seco-ursan-12-en-28-oic acid 3,4 lactone] the “percentage of inhibition” value (accumulation of NO2−) was 41.0 ± 9.6%, the IC50 ([1]; 72 h) was over 30 µM and the “% of viability” value [1] was 63.91%. The “cytotoxic activity” value [1] was “weakens cytotoxic activities”.

`C[C@H]1[C@H](C)CC[C@]2(C(=O)O)CC[C@]3(C)C(=CC[C@@H]4[C@@](C)(CCC(=O)O)[C@H](C(C)(C)O)CC[C@]43C)[C@H]12` [Compound 22, 3,4-seco-Ursan-4-hydroxy-12-en-3,28-dioic acid] was tested, and the IC50 ([1]; 72 h) was over 30 µM, the “% of viability” value [1] was 56.04% and the “cytotoxic activity” value [1] was “weakens cytotoxic activities”.

In the case of `N.N.[Cl][Pt][Cl]` [cisplatin, reference compound], the “intracellular ROS” value (NTUB1 cells [2]; 10 μM, 24 h, effect inhibited by NAC) is reported as “significant increase in intracellular ROS”, the “intracellular ROS” value (NTUB1 cells [2]; 10 μM, 48 h, effect not inhibited by NAC) is reported as “significant increase in intracellular ROS” and the “effect on cell cycle progression” value (NTUB1 cells [3]; 10 μM, 48 h) is reported as “S phase arrest”. The “effect on cell cycle progression” value (NTUB1 cells [3]; 10 and 20 μM, 24 h) was “dose dependent accumulation of cells in the G1 phase with a concomitant increase in the population of sub-G1 phase” and the IC50 ([1]; 72 h) was 3.27 ± 0.1 µM.

`CCN(CC)CCCC(C)Nc1c2ccc(Cl)cc2nc2ccc(OC)cc12` (stereo not drawn) [mepacrine, reference compound] showed an IC50 [5] of 12.4 ± 1.6 µM.

Compound `CN1CCN(CCCN2c3ccccc3Sc3ccc(C(F)(F)F)cc32)CC1` [trifluoperazine, reference compound] has an IC50 ([4]; Neutrophil) of 7.3 ± 0.6 µM.

In the case of “N-(3-aminomethyl)benzylamide [1400 W, reference compound]”, the IC50 (accumulation of NO2−) is reported as 5 ± 1.5 µM.
